We go through 5 compounds from patent publication US9132071B2, “Compositions containing quaternary ammonium compounds” (SANTEN SAS, priority 2006, dated 2015).

A short description of series [1]: Emulsion droplet size by dynamic light scattering. The class given is physicochemical. To be noted: 25° C., diluted in double distilled water. As to the method: Measurements are performed at 25° C. following dilution of the emulsion in double distilled water.
The nature of series [2]: Emulsion zeta potential by electrophoretic mobility. In kind it is physicochemical. To be noted: 25° C., dilution 1:250. On the procedure: Zeta potential can be measured by a zetameter such as Zetasizer 2000, Malvern Instruments Ltd, UK. The zeta potential of the emulsion droplet surface is determined by electrophoretic mobility. Measurements are performed at 25° C. following dilution at 1:250 of the emulsion in double distilled water. The electrophoretic mobility is converted into zeta potential values through the Smoluchowsky equation.

Series [3] has as its system white male New Zealand rabbits. Nature of the series: Ocular irritation, adaptation of the Draize test. To be noted: BAK C16 within an emulsion; 50 μL instilled, rabbit eye; FIG. 2. The class given is in vivo. On the procedure:
The ocular irritation of the emulsions and solutions has been evaluated using an adaptation of the Draize test on white male New Zealand rabbits (2.75-3.00 kg). Fifty μL of emulsion or solution were instilled unilaterally and 50 μL of NaCl 0.9% in the other eye of the three rabbits per group. General aspect assessment of the animals was performed (behavior, blinking, itching of the eye with forelegs) as well as eye tissue evaluation (conjunctiva, cornea, iris) after instillation, 1, 24, 48 and 72 hours. Observations were scored according to the Draize test protocol.

`CCCCCCCCCCCCCC[N+](C)(C)Cc1ccccc1` [BAK C14, myristalkonium chloride]: the Emulsion droplet size in series [1] (emulsion containing 0.0025% QA) amounted to 204 nm; in series [1] (emulsion containing 0.005% QA), 190 nm; in series [1] (emulsion containing 0.01% QA), 190 nm; in series [1] (emulsion containing 0.02% QA), 155 nm; in series [1] (emulsion containing 0.04% QA), 238 nm; in series [1] (emulsion containing 0.1% QA), 185 nm. Moreover, the Emulsions zeta potential entry in series [2] (emulsion containing 0.0025% QA) is on record as “+11.4 mV”; in series [2] (emulsion containing 0.005% QA), “+19.6 mV”; in series [2] (emulsion containing 0.01% QA), “+22.9 mV”; in series [2] (emulsion containing 0.02% QA), “+28.4 mV”; in series [2] (emulsion containing 0.04% QA), “+39.3 mV”; in series [2] (emulsion containing 0.1% QA), “+44.5 mV”.

`CCCCCCCCCCCCCCCC[N+](C)(C)Cc1ccccc1` [BAK C16, cetylkonium chloride]: the Emulsion droplet size stood at 220 nm in series [1] (emulsion containing 0.001% QA); 210 nm in series [1] (emulsion containing 0.0025% QA); 148 nm in series [1] (emulsion containing 0.005% QA); 180 nm in series [1] (emulsion containing 0.01% QA); 155 nm in series [1] (emulsion containing 0.02% QA); 188 nm in series [1] (emulsion containing 0.04% QA). Besides, the Emulsion droplet size in series [1] (emulsion containing 0.1% QA) is 183 nm. For the same compound, the Emulsions zeta potential result in series [2] (emulsion containing 0.001% QA) is on record as “+16.2 mV”; in series [2] (emulsion containing 0.0025% QA), “+24.4 mV”; in series [2] (emulsion containing 0.005% QA) it was “+31.4 mV”; in series [2] (emulsion containing 0.01% QA) it was “+36.7 mV”; in series [2] (emulsion containing 0.02% QA), “+44.1 mV”; in series [2] (emulsion containing 0.04% QA), “+47.2 mV”. In addition, in series [2] (emulsion containing 0.1% QA), the Emulsions zeta potential entry is recorded as “+48.9 mV”. Further, the “Ocular irritation (toxicity), Draize score” value in series [3] is given as “unexpected decrease of its toxicity”.

On to `CCCCCCCCCCCC[N+](C)(C)Cc1ccccc1` [BAK C12, benzododecinium chloride], for which the Emulsion droplet size in series [1] (emulsion containing 0.005% QA) came out at 198 nm; in series [1] (emulsion containing 0.01% QA), 263 nm; in series [1] (emulsion containing 0.02% QA) it was 230 nm; in series [1] (emulsion containing 0.04% QA) it was 225 nm; in series [1] (emulsion containing 0.1% QA) it was 180 nm. In addition, the Emulsions zeta potential is recorded as −6.9 mV in series [2] (emulsion containing 0.005% QA); “+4.2 mV” in series [2] (emulsion containing 0.01% QA); “+7.9 mV” in series [2] (emulsion containing 0.02% QA); “+16.8 mV” in series [2] (emulsion containing 0.04% QA); “+23.8 mV” in series [2] (emulsion containing 0.1% QA).

For the compound `CCCCCCCCCCCC[N+](C)(C)C.[Br-]` [ATAB C12, lauryl trimethyl ammonium bromide], the results for the Emulsions zeta potential in series [2] (emulsion containing 0.0025% QA) and in series [2] (emulsion containing 0.005% QA) were −35.5 mV and −14.6 mV, respectively.

With `CCCCCCCCCCCCCCCC[N+](C)(C)C.[Br-]` [ATAB C16, cetyl trimethyl ammonium bromide], the Emulsion droplet size amounted to 222 nm in series [1] (emulsion containing 0.0025% QA) and 212 nm in series [1] (emulsion containing 0.005% QA). Further, the Emulsions zeta potential result in series [2] (emulsion containing 0.0025% QA) is “+11.9 mV”; in series [2] (emulsion containing 0.005% QA), “+20.2 mV”.
